The text below walks through data of patent publication US10457943B2, “Antisense oligonucleotides for treatment of cancer stem cells” (Andes Biotechnologies Global, Inc., priority 2013, dated 2019).

Entries after “also recorded” stand apart in the source; their conditions may differ.

The subject of series [1] is CerCa 3 primary cervical tumor cells (HPV 45). Kind of series: Sphere formation assay, primary cervical tumor cells CerCa 3. In kind it is cell-based, human. The note with it: incubated with 45 μM cisplatin. The protocol:
(§1) The ability of cervical cells from the SiHa cervical cancer cell line (transformed with Human Papillomavirus 16 or HPV 16) and from primary cultures of human uterine cervical cancer cells derived from patients to form spheroid bodies following treatment with antisense oligonucleotides directed to antisense non-coding chimeric mitochondrial RNA (ASncmtRNA) was determined. The assay utilized measured the numbers of spheroid bodies, also referred to herein as spheres, which are formed by cancer stem cells.
(§2) The experimental procedure and assay utilized herein measured the effect of antisense oligonucleotides that were targeted to ASncmtRNA on the number of spheres formed by cervical cancer cells (FIG. 6). Sphere formation was measured in the SiHa cervical cancer cell line and primary cultures of human cervical cancer cells derived from patients (CerCa). […]
(§3) About 1×10^5 cells resuspended in MEGM™ medium supplemented with 20 ng/ml of hEGF, hydrocortisone, insulin, GA-1000 (Lonza), 0.5×B-27 without vitamin A (Invitrogen), 20 ng/ml of FGFb (Invitrogen) without CFS were seeded on ultra-low adherence plates (Corning). Ten days later, the spheres were counted under phase microscopy, collected and filtered using a nylon mesh of 70 μm to discard single cells. […]
(§4) The different primary cultures were analyzed with the PGMY09/11 Linear Array (Roche). […]

In series [2] the test system is SiHa cervical cancer cell line (HPV 16). Description: Sphere formation assay, SiHa cervical cancer cell line. In kind it is cell-based, human. The note with it: incubated with 45 μM cisplatin. The procedure: as §1
The experimental procedure and assay utilized herein measured the effect of antisense oligonucleotides that were targeted to ASncmtRNA on the number of spheres formed by cervical cancer cells (FIG. 6). Sphere formation was measured in the SiHa cervical cancer cell line and primary cultures of human cervical cancer cells derived from patients (CerCa). CerCa 1, CerCa 2 and CerCa 3 (transformed with Human Papillomavirus 45) were obtained from patient biopsies. […]
as §3

Series [3] concerns CerCa 1 primary cervical tumor cells (HPV 16). Kind of series: Sphere formation assay, primary cervical tumor cells CerCa 1. The class given is cell-based, human. The note with it: incubated with 45 μM cisplatin. The protocol: as §1, §2, §3, §4
Series [4] deals with CerCa 2 primary cervical tumor cells (HPV 16). Kind of series: Sphere formation assay, primary cervical tumor cells CerCa 2. The class given is cell-based, human. The note with it: incubated with 45 μM cisplatin. The protocol: as §1, §2, §3, §4
Series [5] relates to B16F10 melanoma cells. Kind of series: Relapse and metastasis after surgical removal of B16F10 melanoma tumors (Example 3). In kind it is in vivo, C57BL/6 mice. The protocol:
One common clinical protocol for melanoma includes surgical resection follow by systemic administration of drugs. Similar protocols are used in the practice of other tumors. In the melanoma model presented in this representative example, B16F10 melanoma cells (100,000 cells in 200 μl of saline) were injected subcutaneously on the back of C57BL/6 mice. About 11 to 12 days post-cell injection, tumors between 700 to 1.000 mm3 developed (a 1,000 mm3 tumor in mice is considered equivalent to a 3,000 cc3 tumor in humans). […] Tumors were surgically resected under anesthesia and the wound washed once with 250 μl containing 100 μg of ASO 1560S or ASO 154. After surgical suture, a bolus of 200 μl saline containing 100 μg of ASO 154 or ASO 1560S was applied into the cavity left by the tumor. Three days post-surgery, mice received on alternative days, 3 intravenous (FIG. 9; 1st, 3rd, 5th arrows on timeline) or 3 intraperitoneal (FIG. 9; 2nd, 4th, 6th arrows on timeline) injections of 250 μl saline containing 100 μg of either ASO 1560S or ASO 154. Tumor growth was measured twice a week with a caliper.
Relapse of tumor growth in mice treated with ASO 154 was observed about 3 days post-surgery and tumor volume of about 1,500 mm3 was reached on about the 25th day post-cell injection (FIG. 9). These mice were euthanized under anesthesia, and the tumor and other organs were fixed and saved for further studies. […] Livers and lungs were analyzed for the presence of metastatic nodules.

Series [6] has as its system RENCA cells. Description: Relapse and survival after surgical removal of RENCA kidney tumors, intraperitoneal/intravenous treatment (Example 5). The class given is in vivo, mice. The note with it: day 60; 25 μg ip and iv injections in liposomes. The procedure: 100,000 RENCA cells (ATCC® CRL-2947™ Mus musculus kidney renal adenocarcina) were injected subcutaneously on day 0 in 8 mice. […] Tumors of all animals were removed by surgery and divided in 2 groups. […] Post-suture, a bolus of 250 μl was intraperiotoneally injected in the place of where tumor had grown: the control group was injected with ASO 154 and the treated group with ASO 1560S. On days 13, 15, 17 and 19, intraperitoneal injections of 25 μg ASO 154 (FIG. 12, circles) or 25 μg ASO 1560S (FIG. 12, squares) formulated in liposomes were injected in a volume of 250 μl. On days 14, 16 and 18, the mice were injected intravenously with the same protocol. On day 22, all control animals had tumors larger than 1,200 mm3 and were sacrificed. On day 60, all animals treated with ASO 1560S had no tumors and were still alive (FIG. 12).

Series [7] relates to RENCA cells. Description: Relapse and survival after surgical removal of RENCA kidney tumors, single post-surgery treatment (Example 4). The class given is in vivo, mice. The note with it: in liposomes. The protocol: 100,000 RENCA cells (ATCC® CRL-2947™ Mus musculus kidney renal adenocarcina) were injected subcutaneously at day 0. […] The animals were sutured and […] injected at the site of the removed tumor with 100 μg of ASO 154 (FIG. 11, squares) or ASO 1560S (FIG. 11, triangles), both formulated in liposomes, in 250 μl. No further treatment was given.

Series [8] has as its system MB49 cells (mouse bladder cancer cells). Description: Tumors and survival after surgical removal of MB49 bladder carcinoma tumors (Example 7). In kind it is in vivo, mice. The procedure:
Twelve mice were injected subcutaneously with a 100,000 MB49 cells (mouse bladder cancer cells). After 15 days mice had tumors of an average diameter of 800 mm3. Tumors were surgically removed (day 0) and a bolus of 200 μl containing 100 μg of ASO 154 (control) or ASO 1560S (active drug) was injected at the site of the surgery. Three days post-surgery mice were divided in 2 groups and treated intraperitoneally or intravenously with 100 μl injections containing ASO 154 (control group) or ASO 1560S (treated group) as indicated in FIG. 14. Only one mouse treated intraperitoneally with ASO 1560S developed a tumor.

In series [9] the test system is B16F10 melanoma cells. Kind of series: Relapse and survival after surgical removal of B16F10 melanoma tumors, intraperitoneal treatment (Example 6). The note with it: 25 and 50 μg intraperitoneal injections post-surgery. In kind it is in vivo, mice.
Where [10] appears, read: FIG. 14, intraperitoneal or intravenous administration.
Where [11] appears, read: treated intravenously after 100 μg bolus at surgery site.

As to `N.N.[Cl][Pt][Cl]` [cisplatin], the Sphere formation result was “no effect; also recorded: resistant to cisplatin treatment” in series [1], “abolished sphere formation” in series [2], “abolished sphere formation” in series [3] and “abolished sphere formation” in series [4].
With “ASO 1560S: antisense oligonucleotide targeted to the mouse ASncmtRNAs (SEQ ID NO: 198) (antisense CACCCTCTAACCTAGAGAAG; all phosphorothioate, sugars by position and methylation of C not given here)”, the “Relapse of tumor growth after surgery” value in the series on B16F10 melanoma cells [5] (100 μg wound wash, 100 μg bolus, then 3 iv and 3 ip injections of 100 μg) is on record as “No relapse; also recorded: prevented or suppressed cancer relapse; also recorded: absence of tumor relapse”. Further, the Detectable tumors result in the series on B16F10 melanoma cells [5] (130 days post-cell injection) is listed as “without the presence of detectable tumors”. For the same molecule, in the series with B16F10 melanoma cells [5] (organs collected at euthanasia), the “Metastatic nodules in lungs and liver” value was “lacked the presence of metastatic nodules; also recorded: absence of metastatic nodules”. Further, the Survival entry in the series with RENCA cells [6] is “still alive”; with RENCA cells [7] (day 61), “still alive; also recorded: complete survival”; in series [8] (setting [10]), “complete survival”; in series [8] (setting [11]), “full survival”; in the series with B16F10 melanoma cells [9] it was “complete survival”. In addition, the “Tumors / relapse after surgery” value in the series with RENCA cells [6] was “no tumors; also recorded: absence of relapse”. Also, in the series with RENCA cells [7] (up to day 61, 100 μg wash and 100 μg injection), the “Tumors / tumor relapse after surgery” value is “no tumors; also recorded: absence of tumor relapse”. The Tumors entry in series [8] (setting [10]) was “absence of tumors”; in [8] (setting [11]), “remained without tumors”. For the same molecule, the “Number of mice that developed a tumor” value in [8] (treated intraperitoneally after 100 μg bolus at surgery site) is recorded as “one”. Besides, in the series on B16F10 melanoma cells [9], the “Tumor relapse after surgery” value is reported as “absence of the intradermal melanoma tumor relapse”.
